Data from US20030026852A1, “Molecular iodine pharmaceutical composition” (SYMBOLLON CORPORATION, priority 2001, published 2003).

Tests used:
[1] = stability of a solution of molecular iodine in mineral oil at 40° C.; format: physicochemical
Description: The stability of a solution of molecular iodine in oil was measured. Crystals of elemental iodine were dissolved at room temperature in mineral oil. The concentrations of molecular iodine were approximately 0.6, 3.0 and 6.0 mg/mL. The absorbance was determined at 522 nm as a measure of the concentration of molecular iodine. Samples were stored in 500 mL amber glass bottles (Fisher Cat. No. 05-719-466) with Teflon lined screw-tops. The screw tops contained a septum to sample the fluids using a syringe without opening the bottle. The bottles were stored in an incubator at 40° C.
Samples were analyzed monthly to determine if there was a loss of molecular iodine. On the day of an analysis, a bottle was removed from the incubator, placed into room-temperature water covering approximately ¾ of the bottle, and allowed to cool for at least 6 hours. A sample was removed with a glass syringe and its absorbance was determined at 522 nm.

[2] = interaction of molecular iodine with mineral oil, UV-visible absorbance; format: physicochemical; conditions: elemental iodine dissolved in mineral oil, 300-600 nm
Description: The interaction of molecular iodine with mineral oil was evaluated. The following stock solutions were prepared for this experiment: 0.050 grams and 1.001 grams of elemental iodine crystals dissolved into about 80 ml of mineral oil in two different 100-ml flasks, and then filled to 100 ml with mineral oil. The absorbance spectrum between 300 and 600 nm for various mixtures of these two stock solutions were made in a UV/V is scanning spectrophotometer (Schimadzu 1125). The absorbance spectrums were analyzed and the extinction coefficient was calculated at appropriate wavelengths.
The UV-visible spectra of iodine-in-mineral oil presents two peaks in the range of 300-600 nm; one peak is at 302 nm and the other is at 522 nm (the maximum absorbance is at 522 nm). The absorbance is proportional to concentration as predicted by Beer's Law. […] The two peaks are at 302 nm and 522 nm and are slightly variable in the test concentration range. The extinction coefficients (moles per 1000 grams)^−1 (per cm)^−1) at 302 and 522 nm were calculated to be 219 and 905 respectively.

[3] = system: women; experiment: six month study of molecular iodine in 111 women (IND #56,523); format: in vivo; conditions: 111 women, 0, 1.5, 3.0 or 6.0 mg per day for six months, in situ generation of molecular iodine
Description: To determine the potential for molecular iodine to cause hyperthyroidism or hypothyroidism 111 women daily were dosed with either 0, 1.5, 3.0 or 6.0 mg of molecular iodine per day for six months. This study was performed under the guidance of the FDA (IND #56,523). The dosage form used relied upon in situ generation of molecular iodine as described in U.S. Pat. No. 5,885,592 as opposed to the aqueous iodine therapy of Table 5. The total exposure to molecular iodine in this study was 3.619 subject years.

[4] = administered orally; cited from earlier work
[5] = system: mammalian thyroid parameters; conditions: orally administered; cited from earlier work

Structure (SMILES)	Percentage of Initial Absorbance (OD522nm) ([1]; 0.6 mg/mL I2 in mineral oil, Day 14)	Percentage of Initial Absorbance (OD522nm) ([1]; 0.6 mg/mL I2 in mineral oil, Day 32)	Percentage of Initial Absorbance (OD522nm) ([1]; 0.6 mg/mL I2 in mineral oil, Day 56)	Percentage of Initial Absorbance (OD522nm) ([1]; 0.6 mg/mL I2 in mineral oil, Day 97)	Percentage of Initial Absorbance (OD522nm) ([1]; 0.6 mg/mL I2 in mineral oil, Day 143)	Percentage of Initial Absorbance (OD522nm) ([1]; 3.0 mg/mL I2 in mineral oil, Day 14)	Percentage of Initial Absorbance (OD522nm) ([1]; 3.0 mg/mL I2 in mineral oil, Day 32)	Percentage of Initial Absorbance (OD522nm) ([1]; 3.0 mg/mL I2 in mineral oil, Day 56)	Percentage of Initial Absorbance (OD522nm) ([1]; 3.0 mg/mL I2 in mineral oil, Day 97)	Percentage of Initial Absorbance (OD522nm) ([1]; 3.0 mg/mL I2 in mineral oil, Day 143)	Percentage of Initial Absorbance (OD522nm) ([1]; 6.0 mg/mL I2 in mineral oil, Day 14)	Percentage of Initial Absorbance (OD522nm) ([1]; 6.0 mg/mL I2 in mineral oil, Day 32)	Percentage of Initial Absorbance (OD522nm) ([1]; 6.0 mg/mL I2 in mineral oil, Day 56)	Percentage of Initial Absorbance (OD522nm) ([1]; 6.0 mg/mL I2 in mineral oil, Day 97)	Percentage of Initial Absorbance (OD522nm) ([1]; 6.0 mg/mL I2 in mineral oil, Day 143)	change of absorbance with time (stability in mineral oil) [2]	hyperthyroidism or hypothyroidism [3]	treatment-emergent adverse events, laboratory parameters, vital signs versus dose [3]	oral toxicity compared with iodide [4]	concentration negatively affecting mammalian thyroid parameters, fold less than for a comparable effect from molecular iodine [5]
II [I2, molecular iodine]	99.5%	99.1%	98.2%	97.8%	96.4%	100.6%	100.5%	100.4%	100.1%	100.8%	100.3%	100.2%	99.2%	101.4%	100.7%	did not change with time	No hyperthyroidism or hypothyroidism was observed	not associated with increases in incidence, severity and causality of treatment-emergent adverse events or clinically significant changes in laboratory parameters or vital signs	less toxic than iodide	
I [iodide]																				10 fold
